Results on two compounds are retold here after paper PMC11766273, “Design, Synthesis, Anticancer Screening, and Mechanistic Study of Spiro-N-(4-sulfamoyl-phenyl)-1,3,4-thiadiazole-2-carboxamide Derivatives” (International Journal of Molecular Sciences, 2025).

By IC50 is commonly meant the concentration that gives 50% inhibition. High values mean weaker potency in that assay, low ones greater potency in that assay. Usually viability stands for the share of living cells, or the viability signal relative to a control. Higher therefore signals better survival. The Ki is the equilibrium dissociation constant of an inhibitor or competing ligand from its target.

One series in a line: in vitro. Particulars: human, WI 38 normal cells.
Series [1] relates to colon HT29 cancer cell line. As to the kind of experiment: MTT cell viability assay. (In general: Tetrazolium assays rely on reduction of a dye to a coloured formazan, in cell work by metabolically active cells.)
Protocol: (§1) The growth percentage was calculated at different drug concentration
levels and at different times.
(§2) and WI 38 cell lines was determined utilizing established MTT test procedures.
(§3) All cell lines utilized were acquired from the Vacsera Cell Culture Library, Tissue
(§4) Culture Unit, Cairo, Egypt, with ATCC provenance.
(§5) concentrations that inhibited 50% of cell growth were tested three times, and the mean
(§6) was computed. Cells were grown in DMEM (Invitrogen/Life Technologies) augmented
(§7) with 10% FBS (Hyclone), 10 mg/ml of insulin (Sigma), and 1% penicillin-streptomycin.
(§8) Seed cells (density 1.2–1.8×10,000 cells/well) in 100 mL of complete growth medium and
(§9) 100 mL of the tested chemical per well in a 96-well plate for 24 h before the MTT testing.
(§10) In a standard experiment, 100 mL of serially diluted sterile testing substances were
(§11) introduced to achieve final concentrations ranging from 0.01 to 100 mM, utilizing
(§12) growth media as a negative control. Following 24 h of culture incubation, the
(§13) supernatants were discarded. The LOX IMVI, HT29, and RXF393 cell lines were
(§14) subjected to trypsinization and rinsed with calcium/magnesium-free PBS (pH 7.2). We
(§15) transferred cultures from the incubator to a laminar flow hood or sterile workspace.
(§16) Each test must incorporate a blank, providing complete media
(§17) balanced salt solution devoid of phenol red and serum. Incorporate reconstituted MTT
(§18) at a volume constituting 10% of the culture medium—re-incubate cultures for 2 to 4 h,
(§19) contingent upon cell type and optimal cell density. Upon completion of the incubation
(§20) period, the cultures from the incubator are extracted, and the resultant formazan
(§21) crystals are dissolved by adding an equivalent volume of MTT Solubilization Solution
Absorbance was spectrophotometrically
(§22) measured at a wavelength of 570 nm. Quantify the background absorbance of multi-
(§23) well plates at 690 nm and deduct this value from the data at 450 nm. Data from all
(§24) experiments were documented, and the viability percentage of cells was computed.
For another series, the system named is renal RXF393 cell line. Kind of series: Apoptosis assay (Annexin V-FITC/PI). The format is cell-based, human. The note with it: RXF393 treated at IC50.
The next series has as its system RXF393 cells. Kind of series: Cell cycle analysis (propidium iodide flow cytometry). Particulars: RXF393 treated at IC50. Background: Flow cytometry measures light scatter and fluorescence of single cells or particles in a stream.
The subject of series [2] is melanoma LOX IMVI cancer cell line. Kind of series: MTT cell viability assay. Particulars: for % viability: LOXIMVI.
Protocol: as §1
levels and at different times.
as §2, §3, §4, §5, §6, §7, §8, §9, §10, §11, §12, §13, §14, §15, §16, §17, §18, §19, §20, §21
Absorbance was spectrophotometrically
as §22, §23, §24
Series [3] relates to renal RXF393 cancer cell line. As to the kind of experiment: MTT cell viability assay. Particulars: for % viability: rxf393.
Protocol: as §1
levels and at different times.
as §2, §3, §4, §5, §6, §7, §8, §9, §10, §11, §12, §13, §14, §15, §16, §17, §18, §19, §20, §21
Absorbance was spectrophotometrically
as §22, §23, §24
A further series has as its target hCA XII (Homo sapiens, UniProt O43570). Details: method as in PMID 35671645, PMID 37577088, PMID 30978604, PMID 37776683. Particulars: printed in Figure 1 for reported compounds; cited from earlier work.
In another series the target is hCA IX (Homo sapiens, UniProt Q16790). Details: method as in PMID 35671645, PMID 37577088, PMID 30978604, PMID 37776683. The note with it: printed in Figure 1 for reported compounds; cited from earlier work.

hCA XII, sequence (O43570 25-354): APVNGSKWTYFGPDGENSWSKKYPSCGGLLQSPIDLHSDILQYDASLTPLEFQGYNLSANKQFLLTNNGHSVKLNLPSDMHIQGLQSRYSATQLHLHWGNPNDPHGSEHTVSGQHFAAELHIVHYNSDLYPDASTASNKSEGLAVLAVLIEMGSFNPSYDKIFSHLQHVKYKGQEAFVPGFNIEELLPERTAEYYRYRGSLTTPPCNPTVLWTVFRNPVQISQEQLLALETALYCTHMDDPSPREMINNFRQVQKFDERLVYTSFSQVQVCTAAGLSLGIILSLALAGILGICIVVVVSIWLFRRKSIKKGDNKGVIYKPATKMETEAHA
Protocol for RXF393 cells: The impact of the target compound on cell cycle progression in the RXF393 cancer cell line was evaluated against doxorubicin as a positive control and untreated RXF393 as a negative control, utilizing a flow cytometry assay.
was assessed utilizing the Propidium Iodide Flow Cytometry Kit to quantify DNA
content following established protocols.
RXF393 cells were treated with the IC50 concentration of the target compound
Protocol for in vitro: as §1
levels and at different times.
as §2, §3, §4, §5, §6, §7, §8, §9, §10, §11, §12, §13, §14, §15, §16, §17, §18, §19, §20, §21
Absorbance was spectrophotometrically
as §22, §23, §24

In the series “in vitro”, `COc1cccc2c1C(=O)c1c(O)c3c(c(O)c1C2=O)C[C@@](O)(C(=O)CO)C[C@@H]3O[C@H]1C[C@H](N)[C@H](O)[C@H](C)O1` [Doxorubicin, doxorubicin, reference compound] returned an IC50 at 24 h of 18.1 ± 0.59 µM. Besides, the viability at 24 h, 0.4 µM in “in vitro” is 74.5%. In the series “in vitro”, the viability at 24 h, 1.6 µM was found to be 63.2%. In addition, the viability at 24 h, 6.3 µM in the series “in vitro” stood at 52.4%. In the series “in vitro”, this compound gave a viability at 24 h, 25 µM of 46.6%. Besides, the viability at 24 h, 100 µM in “in vitro” was 38.4%. The IC50 in series [1] (HT29) was determined as 13.5 ± 0.71 µM; in series [2] (LOX IMVI), 6.08 ± 0.32 µM; in series [3] (RXF393, MTT), 13.5 ± 0.82 µM. Further, the “% viability” value in series [1] (HT-29, 0.4uM) is recorded as 79.36%; in series [1] (HT-29, 1.6uM), 68.43%; in series [1] (HT-29, 6.3uM) it was 57.377%; in series [1] (HT-29, 25uM) it was 45.5981%; in series [1] (HT-29, 100uM) it was 31.937%; in series [2] (0.4uM), 69.98%. For the same compound, the “% viability” value is listed as 58.61% in series [2] (1.6uM); 49.41% in series [2] (6.3uM); 41.5165% in series [2] (25uM); 29.521% in series [2] (100uM); 78.52% in series [3] (0.4ug, MTT); 69.673% in series [3] (1.6ug, MTT). For the same compound, the “% viability” value came to 54.451% in series [3] (6.25ug, MTT); 43.883% in series [3] (25ug, MTT); 34.98% in series [3] (100ug, MTT). For the same compound, the “Apoptosis Late” value in the series on renal RXF393 cell line (DMSO control 0.18) is listed as 17.36%. Moreover, the “Apoptosis Early” value in the series with renal RXF393 cell line (DMSO control 0.42) was 12.64%. In the series on renal RXF393 cell line (DMSO control 1.16), the Necrosis is listed as 9.02%. For the same compound, in the series with RXF393 cells (DMSO control 19.51), the “DNA Content %G2/M” value came to 11.01%. Further, the “DNA Content %S” value in the series with RXF393 cells (DMSO control 28.54) stood at 16.81%. Further, in the series with RXF393 cells (DMSO control 51.95), the “DNA Content %G0-G1” value worked out at 72.18%. Besides, the “Cytotoxicity IC50 SD” value in series [3] (RXF 393, Table S2) was 13.54 ± 0.82 µg/mL.

Turning to `NS(=O)(=O)c1ccc(NC(=O)Nc2ncc(-c3ccc(F)cc3)s2)cc1` [Compound I], the Ki was 0.0276 µM at hCA XII and 0.0136 µM on hCA IX.
